The source of these data is PubChem BioAssay (NCI).

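Five compound concentrations were applied to cells in 96-well plates for 48 hours; endpoints were derived by simple linear interpolation of the resulting dose-response curve. The concentration for 50% growth inhibition is given as GI50. TGI marks complete inhibition of growth.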

Test systems include OVCAR-5 ovarian; CAKI-1 renal; UACC-257 melanoma; ACHN renal; NCI-H522 lung; K-562 leukemia; SK-MEL-2 melanoma; SNB-19 CNS; OVCAR-4 ovarian.
What all share (assay): NCI tumour cell line growth inhibition, 48 h

As to `NC(=O)C(=O)N/N=C1\C(=O)N(c2ccc(Cl)cc2Cl)C(=O)C1C(=O)Nc1ccc(Cl)cc1Cl` (configuration not stated), the TGI with OVCAR-5 ovarian, with CAKI-1 renal, in the assay with UACC-257 melanoma, in the assay with ACHN renal, in the assay with NCI-H522 lung and in the assay with K-562 leukemia was above 100 µM throughout. Besides, the TGI in the assay with SK-MEL-2 melanoma and in the assay with SNB-19 CNS was above 100 µM each time.

Take `O=C(NCCCCNc1cccccc1=O)OCc1ccccc1`: the TGI in the assay with OVCAR-5 ovarian, in the assay with CAKI-1 renal, in the assay with UACC-257 melanoma, with ACHN renal, with NCI-H522 lung and with K-562 leukemia was above 100 µM in each case. Also, the TGI with SK-MEL-2 melanoma, with OVCAR-4 ovarian and with SNB-19 CNS was above 100 µM in each case.

Take `COC(=O)NC(=O)c1cn(C2OC(CO)C(O)C2O)c(=O)[nH]c1=O` (configuration not stated): the TGI in the assay on OVCAR-5 ovarian, with CAKI-1 renal, in the assay on UACC-257 melanoma, with ACHN renal, with NCI-H522 lung and in the assay with K-562 leukemia was above 100 µM throughout. Moreover, the TGI in the assay on SK-MEL-2 melanoma, with OVCAR-4 ovarian and with SNB-19 CNS was above 100 µM throughout.

Take `N.N.N.N.[Co+3].[N-]=[N+]=[N-].[N-]=[N+]=[N-].[N-]=[N+]=[N-]`: the GI50 with OVCAR-5 ovarian is above 100 µM; in the assay on UACC-257 melanoma, above 100 µM; in the assay on ACHN renal, 52 µM; with NCI-H522 lung, 39.7 µM; in the assay on K-562 leukemia, above 100 µM; with SK-MEL-2 melanoma, above 100 µM. The GI50 in the assay with OVCAR-4 ovarian and with SNB-19 CNS was above 100 µM each time. Moreover, the TGI with OVCAR-5 ovarian, in the assay on UACC-257 melanoma, in the assay with ACHN renal, in the assay with NCI-H522 lung, with K-562 leukemia and in the assay with SK-MEL-2 melanoma was above 100 µM each time. Besides, the TGI in the assay with OVCAR-4 ovarian and in the assay with SNB-19 CNS was above 100 µM throughout.

Take `O=C1CC(O)CC(=O)C1=C(O)CCCCCCCCCCc1ccccc1` (configuration not stated): the TGI in the assay with OVCAR-5 ovarian, with CAKI-1 renal, in the assay with UACC-257 melanoma, in the assay on ACHN renal, with NCI-H522 lung and in the assay on K-562 leukemia was above 100 µM in each case. The TGI was 77.1 µM in the assay with SK-MEL-2 melanoma, above 100 µM with OVCAR-4 ovarian and above 100 µM with SNB-19 CNS.

For the compound `CCOc1cccc(/C=N/N=C2\C(=O)Nc3c(Cl)cc(Cl)cc32)c1O`, the TGI in the assay on OVCAR-5 ovarian, in the assay with CAKI-1 renal, with UACC-257 melanoma, in the assay with ACHN renal, in the assay with K-562 leukemia and in the assay with SK-MEL-2 melanoma was above 100 µM throughout. Further, the TGI in the assay with OVCAR-4 ovarian and in the assay on SNB-19 CNS was above 100 µM each time.

`COc1ccc(C23C(=O)c4ccccc4N2O[C@H]2C(=O)N(c4ccccc4)C(=O)[C@H]23)cc1` (some centres not stated): the TGI in the assay on OVCAR-5 ovarian was above 100 µM; in the assay on CAKI-1 renal, above 100 µM; in the assay with UACC-257 melanoma, above 100 µM; with ACHN renal it was above 100 µM; in the assay with NCI-H522 lung, 87.3 µM; in the assay with K-562 leukemia it was above 100 µM. Besides, the TGI in the assay on SK-MEL-2 melanoma, with OVCAR-4 ovarian and with SNB-19 CNS was above 100 µM in each case.

Regarding `N.N.N.N.N.NC(=O)c1nn[n-]n1.[Cl-].[Co+3]`, the GI50 with OVCAR-5 ovarian, in the assay with CAKI-1 renal, in the assay on UACC-257 melanoma, in the assay with ACHN renal, in the assay with K-562 leukemia and with SK-MEL-2 melanoma was above 100 µM each time. Also, the GI50 with OVCAR-4 ovarian and in the assay on SNB-19 CNS was above 100 µM throughout. Also, the TGI in the assay on OVCAR-5 ovarian, with CAKI-1 renal, in the assay on UACC-257 melanoma, with ACHN renal, with K-562 leukemia and with SK-MEL-2 melanoma was above 100 µM each time. In addition, the TGI in the assay on OVCAR-4 ovarian and in the assay on SNB-19 CNS was above 100 µM throughout.

In the case of `O=C(COc1ccc(Cl)cc1)N1N=C(c2ccc(Cl)cc2)CC1(O)c1ccccc1` (configuration not stated), the TGI in the assay on OVCAR-5 ovarian was 45.3 µM; with CAKI-1 renal, above 100 µM; in the assay with UACC-257 melanoma it was 44.3 µM; with ACHN renal it was above 100 µM; with NCI-H522 lung it was 50.2 µM; in the assay with K-562 leukemia it was above 42.7 µM. The TGI was 80.7 µM in the assay on SK-MEL-2 melanoma, 21 µM in the assay with OVCAR-4 ovarian and above 100 µM with SNB-19 CNS.

Take `CC1(C)O[C@H]2[C@H](O)C[C@](O)(CO)C[C@H]2O1`: the TGI with OVCAR-5 ovarian, with CAKI-1 renal, with UACC-257 melanoma, in the assay with ACHN renal, in the assay with NCI-H522 lung and in the assay with K-562 leukemia was above 100 µM throughout. Besides, the TGI in the assay on SK-MEL-2 melanoma, in the assay on OVCAR-4 ovarian and with SNB-19 CNS was above 100 µM throughout.

With `O=C(O)CCN(CCCCN(CCC(=O)O)CCC(=O)O)CCC(=O)O`, the TGI in the assay on OVCAR-5 ovarian, with CAKI-1 renal, in the assay on ACHN renal, in the assay on NCI-H522 lung, in the assay with K-562 leukemia and with SK-MEL-2 melanoma was above 100 µM each time. Further, the TGI with OVCAR-4 ovarian was above 100 µM.

As for `Cc1cc(CC(=O)NCCO)n(CCO)c(=O)c1`, the TGI in the assay with OVCAR-5 ovarian, in the assay on CAKI-1 renal, in the assay on UACC-257 melanoma, with ACHN renal, with NCI-H522 lung and in the assay on K-562 leukemia was above 100 µM each time. The TGI in the assay on OVCAR-4 ovarian and with SNB-19 CNS was above 100 µM each time.

For the compound `CCOC(=O)C12CCCC1(O)N(NC(=O)OC(C)(C)C)C(C)=C2C(=O)OC` (configuration not stated), the TGI in the assay on OVCAR-5 ovarian, in the assay on CAKI-1 renal, in the assay on UACC-257 melanoma, in the assay on ACHN renal, with NCI-H522 lung and in the assay with K-562 leukemia was above 100 µM each time. In addition, the TGI in the assay with SK-MEL-2 melanoma, in the assay on OVCAR-4 ovarian and with SNB-19 CNS was above 100 µM in each case.

Consider `COc1ccc(/C=N/N=C(\N)NO)cc1O`, for which the TGI with OVCAR-5 ovarian, with CAKI-1 renal, in the assay with K-562 leukemia, in the assay on SK-MEL-2 melanoma, in the assay on OVCAR-4 ovarian and in the assay on SNB-19 CNS was above 100 µM each time.
